According to US5112835A, “6-substituted acyclopyrimidine nucleoside derivatives and antiviral agents containing the same as active ingredient thereof” (Mitsubishi Kasei Corporation, priority 1988, dated 1992):

Legend:
[1] = test system: HIV; assay: Inhibitory activity for HIV infection (preventing the death of 50% of the MT-4 cells); format: cell-based; settings: Human immunodeficiency virus 1, MT4, 120 h, 5 days of incubation, 37° C., read-out: 50% inhibitory concentration of HIV infection
Protocol: (§1) In RPMI 1640 DM culture medium containing 20 mM of Hepes buffer solution, 10% fetal bovine serum and 20 µg/ml of gentamycin, 3×10^4 MT-4 cells (human T cell clone which is destroyed by the infection of HIV) were infected with HIV in an amount of 100 times as large as expected to cause 50% infection of the cells. Immediately thereafter, a predetermined amount of sample was added to the culture medium using 50 mg/ml sample solutions in dimethyl sulfoxide and the cells were cultured at 37° C.
(§2) After 5 days of incubation, the number of existing cells was counted to determine the concentration of the compound for preventing the death of 50% of the MT-4 cells. Separately, MT-4 cells were cultured in the same way as above except that they were not infected with HIV to determine the concentration of the compound at which 50% of the MT-4 cells were destroyed.

[2] = Cytotoxicity to MT-4 cells (not infected with HIV); format: cell-based; settings: human, 5 days, 37° C., read-out: 50% cytotoxic concentration to MT-4 cells
Protocol: as §1, §2

[3] = test system: HIV; assay: Inhibitory activity for HIV proliferation (HIV antigen expression in HUT-78 cells, indirect immunofluorescence assay); format: cell-based
Protocol: In the same culture as that for the MT-4 cells, HUT-78 cells (human T cell clone which is not destroyed by the infection of HIV and releases HIV) were infected with HIV in an amount of 0.4 HIV per HUT-78 cell. Immediately thereafter, a predetermined concentration of 1-[(2-hydroxyethoxy)methyl]-6-phenylthiothymine was added to the culture medium and the cells were cultured at 37° C.
Every four days, 3/4 of the culture solution was exchanged and after 12 days of incubation the number of the cells positive to an HIV antigen was counted by indirect immunofluorescence assay using HIV antiserum (positive to the coating protein and core protein of HIV) which had been obtained from an HIV-infected patient.
For comparison, a similar experiment was carried out by using 2',3'-dideoxyadenosine.

[4] = test system: HUT-78 cells; assay: Toxicity to HUT-78 cells; format: cell-based, human; settings: 100 μM
[5] = test system: host cell; settings: background art statement; clinical treatment of HIV-infection; cited from earlier work

For `Cc1cccc(Sc2c(C)c(=O)[nH]c(=O)n2COCCO)c1` [compound 7], the IC50 [1] was 5.1 µM and the CC50 at 120 h [2] was greater than 250 µM.

For `Cc1c(Sc2ccccc2)n(COCCO)c(=O)[nH]c1=O` [compound 1, 1-[(2-hydroxyethoxy)methyl]-6-phenylthiothymine], the IC50 [1] was 7 µM, the CC50 at 120 h [2] was greater than 250 µM and the “prevention of the expression of the HIV antigens” value ([3]; 20 μM, 12 days of incubation) was “completely prevented the expression of the antigens”. For the same molecule, the IC50 ([3]; Human immunodeficiency virus 1, HuT78, 288 h, 12 days of incubation, indirect immunofluorescence, read-out: 50% inhibitory concentration (expression of HIV antigens)) was 5.2 µM and the “toxicity to the HUT-78 cells” value [4] was “no toxicity to the HUT-78 cells was observed”.

In the case of `COc1ccccc1Sc1c(C)c(=O)[nH]c(=O)n1COCCO` [compound 12], the IC50 [1] is reported as 19 µM and the CC50 at 120 h [2] is reported as greater than 250 µM.

For `Cc1c(Sc2cccc(Cl)c2)n(COCCO)c(=O)[nH]c1=O` [compound 10], the IC50 [1] was 13 µM and the CC50 at 120 h [2] was greater than 250 µM.

With `COc1cccc(Sc2c(C)c(=O)[nH]c(=O)n2COCCO)c1` [compound 13] the IC50 [1] was 22 µM and the CC50 at 120 h [2] was greater than 250 µM.

Molecule `Cc1c(SC2CCCCC2)n(COCCO)c(=O)[nH]c1=O` [compound 25] has an IC50 [1] of 18 µM and a CC50 at 120 h [2] greater than 250 µM.

For `Cc1c(Sc2cccc([N+](=O)[O-])c2)n(COCCO)c(=O)[nH]c1=O` [compound 17], the IC50 [1] was 34 µM and the CC50 at 120 h [2] was greater than 250 µM.

For `Cc1cn([C@H]2C[C@H](N=[N+]=[N-])[C@@H](CO)O2)c(=O)[nH]c1=O` [3'-deoxy-3'-azidothymidine], the “toxicity in the host cell” value [5] is listed as “considerable toxicity in the host cell”.

For `Cc1c(Sc2ccccc2)n(COCCO)c(=S)[nH]c1=O` [compound 59, 1-[(2-hydroxyethoxy)methyl]-2-thio-6-phenylthiothymine], the IC50 [1] was 0.98 µM and the CC50 at 120 h [2] was 125 µM.

In the case of `Nc1ncnc2c1ncn2[C@H]1CC[C@@H](CO)O1` [2',3'-dideoxyadenosine, reference compound], the “prevention of the expression of the HIV antigen” value ([3]; at a similar concentration to the present compound (20 μM)) is reported as “completely prevented the expression of the antigen” and the “toxicity to the HUT-78 cells” value [4] is reported as “significant toxicity to the HUT-78 cells”.
